Results: patent EP2970215B1, “PYRROLIDINE DERIVATIVES, PHARMACEUTICAL COMPOSITIONS CONTAINING THEM, AND THEIR USE IN THERAPY” (AbbVie Deutschland GmbH & Co. KG, priority 2013, dated 2014)

Each compound was assayed against T1, human GlyT1c transporter (Homo sapiens, UniProt P48067) (assay: Radioligand binding assay using recombinant CHO cell membranes expressing human GlyT1). Conditions: radioligand binding to human GlyT1c transporter-expressing membranes.
T1 construct: expressed in transfected cells; host or cells: CHO cells (recombinant; line hGlyT1c_5_CHO is named for the uptake assay)
T1 sequence (P48067 1-706): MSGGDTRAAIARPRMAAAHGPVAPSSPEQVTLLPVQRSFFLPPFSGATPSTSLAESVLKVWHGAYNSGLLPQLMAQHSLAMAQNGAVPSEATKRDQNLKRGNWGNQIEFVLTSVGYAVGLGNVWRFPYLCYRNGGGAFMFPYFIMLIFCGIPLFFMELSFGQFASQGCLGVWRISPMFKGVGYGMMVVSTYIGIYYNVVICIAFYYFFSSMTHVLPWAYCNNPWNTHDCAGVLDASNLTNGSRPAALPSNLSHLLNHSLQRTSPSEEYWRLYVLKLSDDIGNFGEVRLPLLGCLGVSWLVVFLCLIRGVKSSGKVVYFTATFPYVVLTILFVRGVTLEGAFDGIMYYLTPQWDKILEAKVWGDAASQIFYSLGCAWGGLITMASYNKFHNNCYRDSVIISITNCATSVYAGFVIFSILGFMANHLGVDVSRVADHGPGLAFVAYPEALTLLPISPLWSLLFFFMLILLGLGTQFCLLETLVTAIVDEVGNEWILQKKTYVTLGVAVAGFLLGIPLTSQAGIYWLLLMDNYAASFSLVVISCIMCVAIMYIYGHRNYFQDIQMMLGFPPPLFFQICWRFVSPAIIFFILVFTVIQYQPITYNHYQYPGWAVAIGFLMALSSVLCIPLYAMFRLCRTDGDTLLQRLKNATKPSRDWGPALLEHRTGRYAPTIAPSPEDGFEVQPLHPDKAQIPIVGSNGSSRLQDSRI
Source text: 2. Radioligand binding assays using recombinant CHO cell membranes expressing human GlyT1: […]

Cn1cnc(S(=O)(=O)N2C[C@@H](C(=O)NCc3ccc(Cl)cc3)[C@H](c3ccc(F)cc3)C2)c1 (relative stereo) [Example 629, Trans-N-(4-chlorobenzyl)-4-(4-fluorophenyl)-1-[(1-methyl-1H-imidazol-4-yl)sulfonyl]pyrrolidine-3-carboxamide] and Cn1cnc(S(=O)(=O)N2C[C@H](C(=O)NCc3ccc(C(F)(F)F)cc3Cl)[C@@H](c3ccc(F)cc3)C2)c1 [Example 663, (3R,4S)-N-[2-chloro-4-(trifluoromethyl)benzyl]-4-(4-fluorophenyl)-1-[(1-methyl-1H-imidazol-4-yl)sulfonyl]pyrrolidine-3-carboxamide] cannot be ordered by Ki: at most 1 µM for the first, at most 0.1 µM for the second.

Cn1cnc(S(=O)(=O)N2C[C@@H](Nc3ccc(F)c(OC(F)(F)F)c3)[C@H](C3CCCCO3)C2)c1 (stereo partly drawn) [Example 741, (3S,4R)-N-[4-fluoro-3-(trifluoromethoxy)phenyl]-1-[(1-methyl-1H-imidazol-4-yl)sulfonyl]-4-(tetrahydro-2H-pyran-2-yl)pyrrolidin-3-amine] and Cn1cnc(S(=O)(=O)N2C[C@@H](Nc3cc(C(F)(F)F)ncn3)[C@H](C3CCCCO3)C2)c1 (relative stereo) [Example 687, N-[Trans-1-[(1-methyl-1H-imidazol-4-yl)sulfonyl]-4-(tetrahydro-2H-pyran-2-yl)pyrrolidin-3-yl]-6-(trifluoromethyl)pyrimidin-4-amine] cannot be ordered by Ki: at most 0.1 µM for the first, at most 0.1 µM for the second.

Cn1cnc(S(=O)(=O)N2C[C@@H](NCc3ccc(C(F)(F)F)cc3Cl)[C@H](c3ccccc3)C2)c1 [Example 395, (3S,4R)-N-[2-chloro-4-(trifluoromethyl)benzyl]-1-[(1-methyl-1H-imidazol-4-yl)sulfonyl]-4-phenylpyrrolidin-3-amine] and Cn1cnc(S(=O)(=O)N2C[C@H](Nc3ccc(C(F)(F)F)c(C(F)(F)F)c3)[C@@H](c3ccccc3)C2)c1 [Example 656, (3R,4S)-N-[3,4-bis(trifluoromethyl)phenyl]-1-[(1-methyl-1H-imidazol-4-yl)sulfonyl]-4-phenylpyrrolidin-3-amine] cannot be ordered by Ki: at most 1 µM for the first, at most 1 µM for the second.

Cc1cc(N[C@@H]2CN(S(=O)(=O)c3cn(C)cn3)C[C@H]2c2ncccc2F)ccc1F (relative stereo) [Example 775, Trans-N-(4-fluoro-3-methylphenyl)-4-(3-fluoropyridin-2-yl)-1-[(1-methyl-1H-imidazol-4-yl)sulfonyl]pyrrolidin-3-amine] and Cn1cnc(S(=O)(=O)N2C[C@@H](Nc3ccc(F)c(Cl)c3)[C@H](c3ccc(F)cc3)C2)c1 (relative stereo) [Example 160, trans-N-(3-chloro-4-fluorophenyl)-4-(4-fluorophenyl)-1-[(1-methyl-1H-imidazol-4-yl)sulfonyl]pyrrolidin-3-amine] cannot be ordered by Ki: at most 1 µM for the first, at most 0.01 µM for the second.

CCCC1CC1CN[C@H]1CN(S(=O)(=O)c2cn(C)cn2)C[C@@H]1c1ccccc1 (stereo partly drawn) [Example 649, (3R,4S)-1-[(1-methyl-1H-imidazol-4-yl)sulfonyl]-4-phenyl-N-[(2-propylcyclopropyl)methyl]pyrrolidin-3-amine] and COCCCCN[C@H]1CN(S(=O)(=O)c2cn(C)cn2)C[C@@H]1c1ccccc1 [Example 647, (3R,4S)-N-(4-methoxybutyl)-1-[(1-methyl-1H-imidazol-4-yl)sulfonyl]-4-phenylpyrrolidin-3-amine] cannot be ordered by Ki: at most 0.1 µM for the first, at most 10 µM for the second.

CCOCCCNC(=O)[C@@H]1CN(S(=O)(=O)c2cn(C)cn2)C[C@H]1c1ccc(F)cc1 [Example 578, (3S,4R)-N-(3-ethoxypropyl)-4-(4-fluorophenyl)-1-[(1-methyl-1H-imidazol-4-yl)sulfonyl]pyrrolidine-3-carboxamide] and COCCCNC(=O)[C@H]1CN(S(=O)(=O)c2cn(C)cn2)C[C@@H]1c1ccc(F)cc1 [Example 583, (3R,4S)-4-(4-fluorophenyl)-N-(3-methoxypropyl)-1-[(1-methyl-1H-imidazol-4-yl)sulfonyl]pyrrolidine-3-carboxamide] cannot be ordered by Ki: at most 10 µM for the first, at most 10 µM for the second.

Cn1cnc(S(=O)(=O)N2C[C@@H](CNCc3ccccc3)[C@H](c3ccc(F)cc3)C2)c1 (relative stereo) [Example 315, N-benzyl-1-{trans-4-(4-fluorophenyl)-1-[(1-methyl-1H-imidazol-4-yl)sulfonyl]pyrrolidin-3-yl}methanamine] and Cn1cnc(S(=O)(=O)N2C[C@@H](NC(=O)c3ccc(Cl)cc3)[C@H](c3ccccc3)C2)c1 (relative stereo) [Example 16, 4-chloro-N-{trans-1-[(1-methyl-1H-imidazol-4-yl)sulfonyl]-4-phenylpyrrolidin-3-yl}benzamide] cannot be ordered by Ki: at most 1 µM for the first, at most 1 µM for the second.

C=C(C)CO[C@@H]1CN(S(=O)(=O)c2cn(C)cn2)C[C@H]1Nc1cccc(Cl)c1 (relative stereo) [Example 403, Trans-N-(3-chlorophenyl)-1-[(1-methyl-1H-imidazol-4-yl)sulfonyl]-4-[(2-methylprop-2-en-1-yl)oxy]pyrrolidin-3-amine] and Cn1cnc(S(=O)(=O)N2C[C@@H](Nc3ccccc3)[C@H](c3ccccc3)C2)c1 (relative stereo) [Example 29, trans-1-[(1-methyl-1H-imidazol-4-yl)sulfonyl]-N,4-diphenylpyrrolidin-3-amine] cannot be ordered by Ki: at most 0.1 µM for the first, at most 1 µM for the second.

Cn1cnc(S(=O)(=O)N2C[C@H](Nc3cc(Cl)ncn3)[C@@H](c3ccc(F)cc3)C2)c1 [Example 691, 6-chloro-N-{(3R,4S)-4-(4-fluorophenyl)-1-[(1-methyl-1H-imidazol-4-yl)sulfonyl]pyrrolidin-3-yl}pyrimidin-4-amine] and Cn1cnc(S(=O)(=O)N2C[C@@H](NC(=O)c3cc(Cl)cc(Cl)c3)[C@H](c3ccc(F)cc3)C2)c1 (relative stereo) [Example 65, 3,5-dichloro-N-{trans-4-(4-fluorophenyl)-1-[(1-methyl-1H-imidazol-4-yl)sulfonyl]pyrrolidin-3-yl}benzamide] cannot be ordered by Ki: at most 0.1 µM for the first, at most 1 µM for the second.

Cn1cnc(S(=O)(=O)N2C[C@H](NCC3CC3c3ccccc3)[C@@H](c3ccccc3)C2)c1 (stereo partly drawn) [Example 564, (3R,4S)-1-[(1-methyl-1H-imidazol-4-yl)sulfonyl]-4-phenyl-N-[(2-phenylcyclopropyl)methyl]pyrrolidin-3-amine] and CCC(CN[C@H]1CN(S(=O)(=O)c2cn(C)cn2)C[C@@H]1c1ccccc1)C(C)C (stereo partly drawn) [Example 470, (3R,4S)-N-(2-ethyl-3-methylbutyl)-1-[(1-methyl-1H-imidazol-4-yl)sulfonyl]-4-phenylpyrrolidin-3-amine] cannot be ordered by Ki: at most 1 µM for the first, at most 10 µM for the second.

Cn1cnc(S(=O)(=O)N2C[C@H](Nc3cc(C4CC4)ncn3)[C@@H](c3ccccc3)C2)c1 [Example 612, 6-cyclopropyl-N-{(3R,4S)-1-[(1-methyl-1H-imidazol-4-yl)sulfonyl]-4-phenylpyrrolidin-3-yl}pyrimidin-4-amine] and Cc1ncc(S(=O)(=O)N2CC(Nc3ccc(F)c(F)c3)C(c3ccccc3)C2)n1C (centres unmarked) [Example 490, N-(3,4-difluorophenyl)-1-[(1,2-dimethyl-1H-imidazol-5-yl)sulfonyl]-4-phenylpyrrolidin-3-amine] cannot be ordered by Ki: at most 1 µM for the first, at most 10 µM for the second.

Cn1cnc(S(=O)(=O)N2C[C@@H](NCc3ccc(C(F)(F)F)cc3Cl)[C@H](C3CCCCO3)C2)c1 (relative stereo) [Example 680, Trans-N-[2-chloro-4-(trifluoromethyl)benzyl]-1-[(1-methyl-1H-imidazol-4-yl)sulfonyl]-4-(tetrahydro-2H-pyran-2-yl)pyrrolidin-3-amine] gave a Ki of at most 0.1 µM.
